Experimental data: PubChem BioAssay AID248 (DTP/NCI, 2004)
Several values for one entry are separate records, joined by “and”; a condition that tells them apart may be missing. Identical values can stand only once. Toxic doses and inconclusive results are not listed.

System: L1210 leukemia ip in BDF1 mice, survival T/C
Assay: NCI In Vivo Anticancer Drug Screen. Data for tumor model L1210 Leukemia (intraperitoneal) in B6D2F1 (BDF1) mice
Details: endpoint: mean survival time, higher = longer survival
Procedure, shortened: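 Ratio derived from survival: compound-dosed mice over vehicle-dosed mice, all bearing a transplantable tumor.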

[1] = dose: 100.0 mg/kg/injection, schedule: Q01DX001 (ip), vehicle: saline
[2] = dose: 200.0 mg/kg/injection, schedule: Q01DX001 (ip), vehicle: saline
[3] = dose: 100.0 mg/kg/injection, schedule: Q01DX009 (ip), vehicle: Klucel (hydroxypropylcellulose) (HPC)
[4] = dose: 200.0 mg/kg/injection, schedule: Q01DX009 (ip), vehicle: Klucel (hydroxypropylcellulose) (HPC)
[5] = dose: 400.0 mg/kg/injection, schedule: Q01DX009 (ip), vehicle: Klucel (hydroxypropylcellulose) (HPC)

## O=C1C=C(c2ccccc2)CO1
[1]
  T/C: 104 % of control
[2]
  T/C: 122 % of control
dose: 400.0 mg/kg/injection, schedule: Q01DX001 (ip), vehicle: saline
  T/C: 98 % of control

## C[N+](C)(C)CCCCCCCCCC[N+](C)(C)C
dose: 0.39 mg/kg/injection, schedule: Q04DX003 (ip), vehicle: saline with Tween-80
  T/C: 99 % of control
dose: 0.78 mg/kg/injection, schedule: Q04DX003 (ip), vehicle: saline with Tween-80
  T/C: 95 % of control
dose: 1.56 mg/kg/injection, schedule: Q04DX003 (ip), vehicle: saline with Tween-80
  T/C: 92 % of control

## CC1CC(NC(=S)NC(=O)c2ccc(Cl)cc2Cl)CC(C)(C)C1 (stereo not given)
[3]
  T/C: 91 % of control
[4]
  T/C: 96 % of control
[5]
  T/C: 91 % of control

## COc1ccc(CC(C(=O)O)C(Cc2ccc(OC)c(OC)c2)C(=O)O)cc1OC (stereo not given)
dose: 50.0 mg/kg/injection, schedule: Q01DX009 (ip), vehicle: Klucel (hydroxypropylcellulose) (HPC)
  T/C: 94 % of control
[3]
  T/C: 104 % of control
dose: 100.0 mg/kg/injection, schedule: Q04DX003 (ip), vehicle: saline
  T/C: 118 % of control
[4]
  T/C: 95 % of control
dose: 200.0 mg/kg/injection, schedule: Q04DX003 (ip), vehicle: saline
  T/C: 114 % of control
[5]
  T/C: 91 % of control
dose: 400.0 mg/kg/injection, schedule: Q04DX003 (ip), vehicle: saline
  T/C: 98 % of control

## CSc1ncnc2c1ncn2N1CCCC1
dose: 75.0 mg/kg/injection, schedule: Q01DX001 (ip), vehicle: other
  T/C: 101 % of control
dose: 150.0 mg/kg/injection, schedule: Q01DX001 (ip), vehicle: other
  T/C: 97 % of control
dose: 300.0 mg/kg/injection, schedule: Q01DX001 (ip), vehicle: other
  T/C: 98 % of control

## CC1(C)COP(=O)(O)OC1
dose: 50.0 mg/kg/injection, schedule: Q01DX009 (ip), vehicle: saline with Tween-80
  T/C: 105 % of control
[1]
  T/C: 101 % of control
dose: 100.0 mg/kg/injection, schedule: Q01DX009 (ip), vehicle: saline with Tween-80
  T/C: 96 % of control
[2]
  T/C: 93 % of control
dose: 200.0 mg/kg/injection, schedule: Q01DX009 (ip), vehicle: saline with Tween-80
  T/C: 91 % of control

## COC1(OC)C2(Cl)CCC1(Cl)C(Cl)=C2Cl
dose: 100.0 mg/kg/injection, schedule: Q01DX001 (ip), vehicle: other
  T/C: 98 % of control
dose: 100.0 mg/kg/injection, schedule: Q01DX001 (ip), vehicle: saline with Tween-80
  T/C: 100 % of control
[3]
  T/C: 100 % of control
dose: 100.0 mg/kg/injection, schedule: Q04DX003 (ip), vehicle: Klucel (hydroxypropylcellulose) (HPC)
  T/C: 102 % of control
dose: 200.0 mg/kg/injection, schedule: Q01DX001 (ip), vehicle: other
  T/C: 98 % of control
dose: 200.0 mg/kg/injection, schedule: Q01DX001 (ip), vehicle: saline with Tween-80
  T/C: 100 % of control
[4]
  T/C: 103 % of control
dose: 200.0 mg/kg/injection, schedule: Q04DX003 (ip), vehicle: Klucel (hydroxypropylcellulose) (HPC)
  T/C: 94 % of control
dose: 400.0 mg/kg/injection, schedule: Q01DX001 (ip), vehicle: other
  T/C: 92 % of control
dose: 400.0 mg/kg/injection, schedule: Q01DX001 (ip), vehicle: saline with Tween-80
  T/C: 97 % of control
[5]
  T/C: 90 % of control
dose: 400.0 mg/kg/injection, schedule: Q04DX003 (ip), vehicle: Klucel (hydroxypropylcellulose) (HPC)
  T/C: 96 % of control

## Cc1nccn1-c1ccc(N=Cc2ccc(N(CCCl)CCCl)cc2)cc1
dose: 43.8 mg/kg/injection, schedule: Q04DX002 (ip), vehicle: Klucel (hydroxypropylcellulose) (HPC)
  T/C: 106 % of control
dose: 87.5 mg/kg/injection, schedule: Q04DX002 (ip), vehicle: Klucel (hydroxypropylcellulose) (HPC)
  T/C: 106 % of control
dose: 175.0 mg/kg/injection, schedule: Q04DX002 (ip), vehicle: Klucel (hydroxypropylcellulose) (HPC)
  T/C: 109 % of control

## O=NN(CCF)C(=O)NC1CCS(=O)(=O)CC1
dose: 1.12 mg/kg/injection, schedule: Q01DX015 (ip), vehicle: other
  T/C: 119 % of control
dose: 1.76 mg/kg/injection, schedule: Q01DX015 (ip), vehicle: other
  T/C: 179 % of control
dose: 1.9 mg/kg/injection, schedule: Q01DX001 (ip), vehicle: saline with Tween-80
  T/C: 201 % of control
dose: 2.0 mg/kg/injection, schedule: Q01DX001 (ip), vehicle: other
  T/C: 118 % of control
dose: 2.68 mg/kg/injection, schedule: Q01DX015 (ip), vehicle: other
  T/C: 309 % of control and 311 % of control
dose: 3.52 mg/kg/injection, schedule: Q02DX008 (ip), vehicle: other
  T/C: 231 % of control and 246 % of control
dose: 3.75 mg/kg/injection, schedule: Q01DX001 (ip), vehicle: other
  T/C: 160 % of control
dose: 3.8 mg/kg/injection, schedule: Q01DX001 (ip), vehicle: saline with Tween-80
  T/C: 207 % of control
dose: 4.0 mg/kg/injection, schedule: Q01DX015 (ip), vehicle: other
  T/C: 422 % of control and 644 % of control
dose: 4.7 mg/kg/injection, schedule: Q## X004 (ip), vehicle: other
  T/C: 268 % of control
dose: 5.0 mg/kg/injection, schedule: Q01DX001 (ip), vehicle: other
  T/C: 163 % of control
dose: 5.36 mg/kg/injection, schedule: Q02DX008 (ip), vehicle: other
  T/C: 484 % of control and 538 % of control
dose: 5.6 mg/kg/injection, schedule: Q## X032 (ip), vehicle: other
  T/C: 261 % of control
dose: 6.0 mg/kg/injection, schedule: Q01DX015 (ip), vehicle: other
  T/C: 290 % of control and 433 % of control
dose: 6.0 mg/kg/injection, schedule: Q## X032 (ip), vehicle: other
  T/C: 153 % of control
dose: 7.0 mg/kg/injection, schedule: Q## X004 (ip), vehicle: other
  T/C: 519 % of control and 532 % of control
dose: 7.5 mg/kg/injection, schedule: Q01DX001 (ip), vehicle: other
  T/C: 302 % of control
dose: 7.5 mg/kg/injection, schedule: Q01DX001 (ip), vehicle: saline with Tween-80
  T/C: 557 % of control
dose: 8.0 mg/kg/injection, schedule: Q01DX001 (ip), vehicle: other
  T/C: 186 % of control
dose: 8.0 mg/kg/injection, schedule: Q02DX008 (ip), vehicle: other
  T/C: 426 % of control and 715 % of control
dose: 9.0 mg/kg/injection, schedule: Q01DX015 (ip), vehicle: other
  T/C: 339 % of control
dose: 9.4 mg/kg/injection, schedule: Q01DX001 (ip), vehicle: other
  T/C: 364 % of control
dose: 10.0 mg/kg/injection, schedule: Q01DX001 (ip), vehicle: other
  T/C: 340 % of control
dose: 10.7 mg/kg/injection, schedule: Q## X004 (ip), vehicle: other
  T/C: 605 % of control and 650 % of control
dose: 12.0 mg/kg/injection, schedule: Q02DX008 (ip), vehicle: other
  T/C: 330 % of control and 476 % of control
dose: 13.0 mg/kg/injection, schedule: Q## X032 (ip), vehicle: other
  T/C: 468 % of control
dose: 14.0 mg/kg/injection, schedule: Q01DX001 (ip), vehicle: other
  T/C: 577 % of control and 580 % of control
dose: 15.0 mg/kg/injection, schedule: Q01DX001 (ip), vehicle: other
  T/C: 365 % of control
dose: 15.0 mg/kg/injection, schedule: Q01DX001 (ip), vehicle: saline with Tween-80
  T/C: 666 % of control
dose: 16.0 mg/kg/injection, schedule: Q01DX001 (ip), vehicle: other
  T/C: 315 % of control
dose: 16.0 mg/kg/injection, schedule: Q## X004 (ip), vehicle: other
  T/C: 365 % of control and 580 % of control
dose: 18.0 mg/kg/injection, schedule: Q02DX008 (ip), vehicle: other
  T/C: 326 % of control
dose: 19.0 mg/kg/injection, schedule: Q## X032 (ip), vehicle: other
  T/C: 180 % of control and 430 % of control
dose: 20.0 mg/kg/injection, schedule: Q01DX001 (ip), vehicle: other
  T/C: 365 % of control
dose: 24.0 mg/kg/injection, schedule: Q## X004 (ip), vehicle: other
  T/C: 231 % of control and 271 % of control
dose: 29.0 mg/kg/injection, schedule: Q## X032 (ip), vehicle: other
  T/C: 115 % of control
dose: 30.0 mg/kg/injection, schedule: Q01DX001 (ip), vehicle: other
  T/C: 365 % of control
dose: 30.0 mg/kg/injection, schedule: Q01DX001 (ip), vehicle: saline with Tween-80
  T/C: 677 % of control
dose: 31.0 mg/kg/injection, schedule: Q01DX001 (ip), vehicle: other
  T/C: 315 % of control
dose: 36.0 mg/kg/injection, schedule: Q## X004 (ip), vehicle: other
  T/C: 253 % of control
dose: 40.0 mg/kg/injection, schedule: Q01DX001 (ip), vehicle: other
  T/C: 334 % of control
